# Measurements: ChEMBL document CHEMBL1201862, “PubChem BioAssay data set” (2004)
# Active and inactive are the calls of the source.
# What was measured:
# Leucine aminopeptidase = molecular target: T1, Leucine aminopeptidase (Plasmodium falciparum 3D7, UniProt Q8IL11); test: P. falciparum M17LAP inhibitors, primary screen, biochemical, fluorogenic H-Leu-NHMec substrate, 1536-well (AID 1619); assay type: functional
# T1 sequence (Q8IL11 whole entry): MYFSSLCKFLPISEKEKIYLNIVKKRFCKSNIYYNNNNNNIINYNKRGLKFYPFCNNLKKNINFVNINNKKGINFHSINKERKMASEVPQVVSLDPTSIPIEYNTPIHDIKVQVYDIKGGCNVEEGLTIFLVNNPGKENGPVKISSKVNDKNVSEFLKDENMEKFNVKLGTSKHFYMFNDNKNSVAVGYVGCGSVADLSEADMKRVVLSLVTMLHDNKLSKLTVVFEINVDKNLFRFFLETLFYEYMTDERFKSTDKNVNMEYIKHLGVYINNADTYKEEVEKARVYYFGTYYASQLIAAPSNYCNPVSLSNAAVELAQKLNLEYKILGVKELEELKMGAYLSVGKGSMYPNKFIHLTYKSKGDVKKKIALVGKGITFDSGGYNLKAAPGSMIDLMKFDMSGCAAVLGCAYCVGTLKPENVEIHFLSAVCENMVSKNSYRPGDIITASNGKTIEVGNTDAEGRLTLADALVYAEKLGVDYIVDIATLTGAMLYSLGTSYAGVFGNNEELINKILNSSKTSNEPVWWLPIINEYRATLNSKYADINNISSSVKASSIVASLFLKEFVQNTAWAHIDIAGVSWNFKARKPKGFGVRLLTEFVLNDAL
# [1] = molecular target: T2, Voltage-gated N-type calcium channel alpha-1B subunit/Amyloid beta A4 precursor protein-binding family A member 1 (Homo sapiens, UniProt Q00975+Q02410); assay type: protein assay
# [2] = molecular target: T2, Voltage-gated N-type calcium channel alpha-1B subunit/Amyloid beta A4 precursor protein-binding family A member 1; assay type: protein assay; remark: listed apart in the source
# [3] = molecular target: Voltage-dependent T-type calcium channel subunit alpha-1H (Homo sapiens, UniProt O95180); assay type: functional;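 further: channel activity triggered by adding a high calcium stimulation buffer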
# [4] = molecular target: Eukaryotic translation initiation factor 4E (Mus musculus, UniProt P63073); test: blockers of eIF4G binding by eIF4E – biochemical, TR-FRET, dose response (AID 855); assay type: functional;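 further: potency for disrupting eIF4E binding to eIF4GI seen as loss of FRET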
# Coagulation factor XII = molecular target: T3, Coagulation factor XII (Homo sapiens, UniProt P00748); assay type: functional;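 further: activated factor XIIa alpha cleaving a fluorogenic AMC peptide substrate; inhibitor potency from loss of enzyme activity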
# T3 sequence (P00748 whole entry): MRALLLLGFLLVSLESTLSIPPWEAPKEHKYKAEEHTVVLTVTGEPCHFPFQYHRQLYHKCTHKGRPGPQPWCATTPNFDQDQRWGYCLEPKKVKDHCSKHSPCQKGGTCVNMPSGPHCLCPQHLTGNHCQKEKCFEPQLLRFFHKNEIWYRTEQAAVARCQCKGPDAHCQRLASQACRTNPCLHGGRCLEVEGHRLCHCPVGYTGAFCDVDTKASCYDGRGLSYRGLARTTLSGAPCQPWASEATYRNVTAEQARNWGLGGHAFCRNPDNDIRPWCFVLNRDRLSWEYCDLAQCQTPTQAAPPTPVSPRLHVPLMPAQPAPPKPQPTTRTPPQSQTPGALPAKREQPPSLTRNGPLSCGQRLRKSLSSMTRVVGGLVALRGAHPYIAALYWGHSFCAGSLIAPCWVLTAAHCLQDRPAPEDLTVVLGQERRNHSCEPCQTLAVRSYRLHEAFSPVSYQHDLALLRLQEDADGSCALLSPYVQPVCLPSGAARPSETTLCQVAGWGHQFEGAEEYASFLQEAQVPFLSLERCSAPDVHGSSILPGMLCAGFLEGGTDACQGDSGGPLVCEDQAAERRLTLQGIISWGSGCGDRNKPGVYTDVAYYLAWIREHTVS
# Cytochrome P450 2D6 = Cytochrome P450 2D6 (Homo sapiens, UniProt P10635);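 further: CYP2D6 member of a cytochrome P450 panel assay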
# Cytochrome P450 1A2 = molecular target: T4, Cytochrome P450 1A2 (Homo sapiens, UniProt P05177);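 further: PubChem cytochrome P450 panel assay, CYP1A2 panel member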
# T4 sequence (P05177 whole entry): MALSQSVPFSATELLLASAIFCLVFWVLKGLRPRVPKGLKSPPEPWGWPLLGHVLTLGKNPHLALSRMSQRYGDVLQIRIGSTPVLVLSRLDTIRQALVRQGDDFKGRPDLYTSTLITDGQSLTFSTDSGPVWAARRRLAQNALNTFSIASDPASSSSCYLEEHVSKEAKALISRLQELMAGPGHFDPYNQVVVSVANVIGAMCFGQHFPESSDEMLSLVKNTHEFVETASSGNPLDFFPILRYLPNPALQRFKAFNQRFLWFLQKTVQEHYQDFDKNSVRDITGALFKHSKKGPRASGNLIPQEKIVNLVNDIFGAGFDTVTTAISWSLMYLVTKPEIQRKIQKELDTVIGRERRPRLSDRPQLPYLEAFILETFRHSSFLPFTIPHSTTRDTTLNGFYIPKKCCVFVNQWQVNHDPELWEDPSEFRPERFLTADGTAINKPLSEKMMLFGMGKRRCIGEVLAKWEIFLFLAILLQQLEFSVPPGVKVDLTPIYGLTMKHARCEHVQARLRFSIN
# Cytochrome P450 3A4 = Cytochrome P450 3A4 (Homo sapiens, UniProt P08684);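 further: CYP3A4 tested as one member of a cytochrome P450 panel screen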
# Cytochrome P450 2C9 = Cytochrome P450 2C9 (Homo sapiens, UniProt P11712)
# [5] = A Cell Based Secondary Assay To Explore Cytotoxicity of Compounds that Sensitize Mycobacterium Tuberculosis to Beta-Lactam Antibiotics.; assay type: functional
# [6] = viability of PTEN-deleted HCT116 cells – cell-based, HCT116 PTEN knockout, dose response (AID 1047); assay type: functional;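 further: HCT116 colon tumor cells with PTEN knocked out; cells exposed to compound for 60 hours before readout; potency for loss of cell viability measured by luminescence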
# [7] = viability of HCT116 lacking mutant beta-catenin – cell-based, human colon tumor, dose response (AID 1045); assay type: functional;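 further: HCT116 colon tumor cells with beta catenin knocked out; cells exposed to compound for 60 hours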
# [8] = luciferase reporter signal suppression in cells – H4 neuroglioma cells, luminescence, dose response (AID 1990); assay type: functional, cell-based
# [9] = Luminescence Cell-Based Dose Response HTS to Identify Inhibitors of 5'UTR Stem-Loop Driven Prion Protein mRNA Translation in H4 Neuroglioblastoma Cells. [Related pubchem assays: 1827 (Project Summary), 1813 (Primary HTS)]; assay type: functional
# [10] = alpha-synuclein stem-loop luciferase translation blockers – H4 neuroglioma cells, luminescence, confirmation (AID 1988); assay type: functional, cell-based
# [11] = THP-1 cell cytotoxicity, dose response, cytotoxicity control for non-replicating M. tuberculosis project (AID 489025); assay type: functional
# [12] = HepG2 cell cytotoxicity, dose response, cytotoxicity control for non-replicating M. tuberculosis project (AID 489018); assay type: functional; details: Mycobacterium tuberculosis
# cells = assay type: functional
# Sequence of Voltage-dependent T-type calcium channel subunit alpha-1H (O95180 whole entry): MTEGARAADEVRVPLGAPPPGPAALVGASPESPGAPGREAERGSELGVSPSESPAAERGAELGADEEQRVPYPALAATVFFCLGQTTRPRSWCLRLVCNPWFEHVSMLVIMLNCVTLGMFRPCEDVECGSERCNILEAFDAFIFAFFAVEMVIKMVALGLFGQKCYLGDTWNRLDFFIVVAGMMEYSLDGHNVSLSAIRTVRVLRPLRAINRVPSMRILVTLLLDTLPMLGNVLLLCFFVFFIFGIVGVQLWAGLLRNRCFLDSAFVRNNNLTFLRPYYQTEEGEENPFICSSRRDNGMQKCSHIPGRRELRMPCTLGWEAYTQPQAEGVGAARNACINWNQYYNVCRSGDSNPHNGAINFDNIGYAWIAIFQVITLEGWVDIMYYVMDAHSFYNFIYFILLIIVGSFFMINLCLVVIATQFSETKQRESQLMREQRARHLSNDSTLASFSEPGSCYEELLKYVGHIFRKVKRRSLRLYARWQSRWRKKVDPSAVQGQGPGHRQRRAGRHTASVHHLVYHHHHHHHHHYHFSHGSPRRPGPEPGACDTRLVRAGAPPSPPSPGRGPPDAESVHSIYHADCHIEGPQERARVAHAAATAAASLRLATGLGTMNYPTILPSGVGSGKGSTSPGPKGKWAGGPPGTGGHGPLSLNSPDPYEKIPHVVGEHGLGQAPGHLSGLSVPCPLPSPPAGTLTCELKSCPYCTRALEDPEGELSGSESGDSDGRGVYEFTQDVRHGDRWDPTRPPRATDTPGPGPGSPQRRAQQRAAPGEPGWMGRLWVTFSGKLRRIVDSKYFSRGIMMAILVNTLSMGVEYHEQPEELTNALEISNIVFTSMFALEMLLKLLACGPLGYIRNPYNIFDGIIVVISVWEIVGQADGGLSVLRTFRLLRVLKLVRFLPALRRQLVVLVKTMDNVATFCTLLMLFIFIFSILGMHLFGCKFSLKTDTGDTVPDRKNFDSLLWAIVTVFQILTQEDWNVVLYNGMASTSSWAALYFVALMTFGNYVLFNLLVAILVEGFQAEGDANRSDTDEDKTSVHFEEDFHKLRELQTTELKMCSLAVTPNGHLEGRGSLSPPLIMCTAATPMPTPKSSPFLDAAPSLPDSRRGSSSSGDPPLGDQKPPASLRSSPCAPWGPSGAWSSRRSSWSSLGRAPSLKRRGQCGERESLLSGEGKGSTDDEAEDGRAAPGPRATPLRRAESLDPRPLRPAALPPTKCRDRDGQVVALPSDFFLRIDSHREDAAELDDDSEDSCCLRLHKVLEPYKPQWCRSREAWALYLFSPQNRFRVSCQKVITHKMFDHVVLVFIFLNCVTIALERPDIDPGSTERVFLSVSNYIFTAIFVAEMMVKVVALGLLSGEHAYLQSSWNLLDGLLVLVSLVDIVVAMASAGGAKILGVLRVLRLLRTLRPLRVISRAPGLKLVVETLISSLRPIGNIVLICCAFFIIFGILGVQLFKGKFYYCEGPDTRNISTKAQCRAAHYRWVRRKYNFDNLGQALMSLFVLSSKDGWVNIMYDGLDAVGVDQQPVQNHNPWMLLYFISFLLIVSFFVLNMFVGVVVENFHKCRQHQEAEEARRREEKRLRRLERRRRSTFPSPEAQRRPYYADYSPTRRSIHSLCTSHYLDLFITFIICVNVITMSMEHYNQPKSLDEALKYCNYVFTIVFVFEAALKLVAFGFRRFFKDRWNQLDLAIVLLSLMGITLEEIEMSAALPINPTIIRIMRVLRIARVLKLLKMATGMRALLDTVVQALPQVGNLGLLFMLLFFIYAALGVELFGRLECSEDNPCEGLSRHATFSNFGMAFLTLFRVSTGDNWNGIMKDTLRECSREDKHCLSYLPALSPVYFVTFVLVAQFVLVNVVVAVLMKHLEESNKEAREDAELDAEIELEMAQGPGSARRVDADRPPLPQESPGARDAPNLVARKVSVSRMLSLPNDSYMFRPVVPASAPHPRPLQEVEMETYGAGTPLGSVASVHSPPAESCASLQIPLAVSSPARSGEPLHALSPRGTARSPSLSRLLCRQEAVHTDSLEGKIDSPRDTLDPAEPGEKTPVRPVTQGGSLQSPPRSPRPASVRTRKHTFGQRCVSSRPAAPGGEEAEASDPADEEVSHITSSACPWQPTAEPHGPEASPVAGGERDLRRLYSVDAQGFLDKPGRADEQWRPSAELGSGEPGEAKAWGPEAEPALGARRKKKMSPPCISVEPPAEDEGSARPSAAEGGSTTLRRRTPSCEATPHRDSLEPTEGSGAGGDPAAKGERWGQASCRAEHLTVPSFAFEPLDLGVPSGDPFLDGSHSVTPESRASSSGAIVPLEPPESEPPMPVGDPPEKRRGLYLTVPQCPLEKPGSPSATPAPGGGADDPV
# Sequence of Cytochrome P450 2D6 (P10635 whole entry): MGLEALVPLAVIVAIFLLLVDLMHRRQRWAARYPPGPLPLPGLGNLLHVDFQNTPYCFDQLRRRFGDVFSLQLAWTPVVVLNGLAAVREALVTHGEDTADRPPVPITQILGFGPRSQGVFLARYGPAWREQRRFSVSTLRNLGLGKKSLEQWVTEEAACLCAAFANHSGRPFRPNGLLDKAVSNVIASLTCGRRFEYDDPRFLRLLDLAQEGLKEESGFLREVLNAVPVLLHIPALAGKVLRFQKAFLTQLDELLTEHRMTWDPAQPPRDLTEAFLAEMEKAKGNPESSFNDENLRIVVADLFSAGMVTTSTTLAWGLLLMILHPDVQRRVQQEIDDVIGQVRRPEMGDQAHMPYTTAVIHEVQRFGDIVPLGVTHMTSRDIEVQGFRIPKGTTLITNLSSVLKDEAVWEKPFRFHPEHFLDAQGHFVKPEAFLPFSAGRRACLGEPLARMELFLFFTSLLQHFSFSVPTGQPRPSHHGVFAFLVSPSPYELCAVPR
# Sequence of Cytochrome P450 3A4 (P08684 whole entry): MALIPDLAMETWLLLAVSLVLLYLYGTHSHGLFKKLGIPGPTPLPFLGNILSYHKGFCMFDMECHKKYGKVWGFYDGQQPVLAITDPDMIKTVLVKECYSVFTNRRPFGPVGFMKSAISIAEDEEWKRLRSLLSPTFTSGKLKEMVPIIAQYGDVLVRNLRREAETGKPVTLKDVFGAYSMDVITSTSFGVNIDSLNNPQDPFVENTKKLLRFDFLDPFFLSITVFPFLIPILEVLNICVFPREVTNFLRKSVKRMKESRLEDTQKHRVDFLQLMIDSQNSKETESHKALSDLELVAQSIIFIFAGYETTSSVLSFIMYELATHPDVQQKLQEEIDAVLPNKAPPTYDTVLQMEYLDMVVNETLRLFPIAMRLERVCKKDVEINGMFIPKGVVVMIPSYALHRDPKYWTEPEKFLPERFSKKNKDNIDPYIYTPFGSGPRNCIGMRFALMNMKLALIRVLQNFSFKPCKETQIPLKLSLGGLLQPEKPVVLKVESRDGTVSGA
# Sequence of Cytochrome P450 2C9 (P11712 whole entry): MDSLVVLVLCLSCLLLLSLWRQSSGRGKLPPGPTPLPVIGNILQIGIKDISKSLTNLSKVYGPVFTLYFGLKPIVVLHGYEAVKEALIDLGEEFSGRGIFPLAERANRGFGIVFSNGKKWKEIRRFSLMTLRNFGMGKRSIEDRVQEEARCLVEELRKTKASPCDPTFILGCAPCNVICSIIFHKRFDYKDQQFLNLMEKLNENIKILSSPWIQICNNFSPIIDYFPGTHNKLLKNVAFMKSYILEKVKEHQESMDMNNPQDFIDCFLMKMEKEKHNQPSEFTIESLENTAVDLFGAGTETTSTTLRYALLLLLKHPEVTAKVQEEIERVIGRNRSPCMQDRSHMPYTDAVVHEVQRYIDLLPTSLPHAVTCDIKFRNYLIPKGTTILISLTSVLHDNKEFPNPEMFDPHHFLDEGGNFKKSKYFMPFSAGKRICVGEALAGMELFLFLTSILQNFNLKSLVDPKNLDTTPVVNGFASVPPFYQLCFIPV
# Sequence of Eukaryotic translation initiation factor 4E (P63073 whole entry): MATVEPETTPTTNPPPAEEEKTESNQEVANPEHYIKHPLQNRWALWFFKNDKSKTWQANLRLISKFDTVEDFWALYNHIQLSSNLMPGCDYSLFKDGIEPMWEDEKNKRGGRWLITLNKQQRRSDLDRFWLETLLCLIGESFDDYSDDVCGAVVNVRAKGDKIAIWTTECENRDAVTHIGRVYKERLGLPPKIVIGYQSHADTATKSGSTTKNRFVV
structure (smiles),measurement,setting,value
COc1ccc(CC(CC(=O)O)C(=O)Nc2ccccc2)cc1 (stereo not drawn),IC50,Leucine aminopeptidase,47.2 µM (active)
Cc1cccc(NC(=S)NC2CCCC2)n1,IC50,[1],7.9 µM (active)
same,IC50,[2],> 50 µM (inactive)
O=C(NC1CCCCC1)N(Cc1ccccc1)Cc1ccco1,EC50,[3],3.68 µM (active)
Nc1ccc(S(=O)(=O)N2CCCc3ccccc32)cc1,IC50,[4],> 64 µM (inactive)
O=C1CC(SCCc2nc3ccccc3[nH]2)C(=O)N1c1ccc(Cl)cc1 (stereo not drawn),EC50,[3],613 µM (active)
O=C(c1ccccc1)C1CN(c2ccccc2)CC1c1ccc(Cl)cc1 (stereo not drawn),IC50,Coagulation factor XII,> 50 µM (inactive)
same,AC50,Cytochrome P450 2D6,3.16 µM (inconclusive)
same,AC50,Cytochrome P450 1A2,3.55 µM (inconclusive)
same,AC50,Cytochrome P450 3A4,8.91 µM (inconclusive)
same,AC50,Cytochrome P450 2C9,5.01 µM (inconclusive)
O=C(NCCc1csc(-c2ccc(C(F)(F)F)cc2)n1)c1cccs1,EC50,[3],4.14 µM (active)
Cc1ccc(S(=O)(=O)Nc2nc3c(s2)C(=O)CC(C)(C)C3)cc1,IC50,Leucine aminopeptidase,94.4 µM (active)
CCOC(=O)c1c(NC(=S)NC(=O)c2ccc(Cn3cc(Cl)cn3)o2)sc2c1CCC(C)C2 (stereo not drawn),CC50,[5],12.2 µM (active)
same,EC50,[6],5.87 µM (active)
same,EC50,[7],6.18 µM (active)
CCCOc1ccc(CCC(=O)N/N=C/c2ccc([N+](=O)[O-])o2)cc1,EC50,[8],> 120 µM (not active)
same,EC50,[9],> 120 µM (not active)
same,EC50,[10],> 120 µM (not active)
same,CC50,[11],13.1 µM (active)
same,CC50,[12],19.3 µM (active)
same,IC50,cells,5.03 µM (active)
CC1(C)C2CC=C(/C=N/n3cnnc3)C1C2 (stereo not drawn),IC50,Coagulation factor XII,> 50 µM (inactive)
